According to patent publication US20240174744A1, “METHODS OF TREATMENT USING PROTEIN BINDERS TO IRHOM2 EPITOPES” (SCIRHOM GMBH, priority 2021, published 2024):

System: PMA-induced release of TNFα from U-937 cells
Assay: ELISA-based TNFα release assay, PMA-stimulated U-937 cells
Format: cell-based
Conditions: Homo sapiens, U-937, 1 h, Batimastat 10 μM, PMA 25 ng/ml
Method: In contrast to Example 14 and 17, where the inhibitory effects of the antibodies of the present disclosure on LPS-induced release of endogenous TNFα from human THP-1 cells were tested, this analysis was conducted with recombinantly produced murine antibodies of the present disclosure to verify their inhibitory effects on PMA-induced release of endogenous TNFα from human monocytic U-937 cells.
In brief, on day 1, Nunc black MaxiSorp® 96-well plates (Thermo Fisher Scientific, USA) were coated overnight with 100 μl per well of mouse anti-human TNFα capture antibody (provided as part of the DuoSet ELISA kit) at 4 μg/ml TBS at 4° C. On day 2, the capture antibody solution was removed and MaxiSorp® plates were blocked with 300 μl per well of TBS, 1% BSA at room temperature for 1-2 hours. […] Using an infinite M1000 (Tecan Group, Switzerland) microplate reader, the fluorescence of each well was collected at an excitation wavelength of 435 nm and an emission wavelength of 555 nm. […]

CNC(=O)[C@H](Cc1ccccc1)NC(=O)[C@H](CC(C)C)[C@H](CSc1cccs1)C(=O)NO [Batimastat]
inhibition at 10 µM (murine (m) and chimeric (ch) antibodies 3 μg/ml): 98.7% | inhibition at 10 µM (recombinant murine antibodies 1 μg/ml): 100%
